Laboratory results as given in patent US9931401B2, “Combination comprising anti-fibroblast growth factor receptor 2 (FGFR2) antibody and a tyrosine kinase inhibitor” (Daiichi Sankyo Company, Limited, priority 2013, dated 2018).
Entries after “also recorded” stand apart in the source; their conditions may differ.

Experiments:
[1] = system: human stomach cancer cell line SNU-16; assay: In vivo combined use with AZD4547, SNU-16-transplanted nude mice; set-up: species or system nude mouse
Description: A human stomach cancer cell line SNU-16 (purchased from ATCC) was adjusted to 5×10^7 cells/mL with a 1:1 mixed solution of PBS and Matrigel (purchased from Nippon Becton Dickinson Company, Ltd.), and 0.1 mL of the cell suspension was subcutaneously transplanted to the axillary region of each nude mouse (CAnN.Cg-Foxnl^nu/CrlCrlj, female, 5 to 6 weeks old, purchased from Charles River Laboratories Japan Inc.). […] The major axis (mm) and minor axis (mm) of the tumor were measured over time using an electronic digital caliper (manufactured by Mitsutoyo Corp.). The tumor volume was calculated according to the following expression: Tumor volume (mm^3)=½×[Major axis of the tumor]×[Minor axis of the tumor]×[Minor axis of the tumor]
The antitumor effect was evaluated on the basis of the percentage of tumor growth inhibition (TGI %) at 21 days after transplantation (final assay day) according to the following expression: TGI (%)=(1−A/B)×100

SNU-16 cells = assay: Amount of antigen FGFR2 on cell surface of SNU-16 treated with low-molecular compound (QIFIKIT); type: cell-based, human; settings: 100 to 1000 nM; compared with untreated or DMSO-treated SNU-16 cells
Description: This operation was repeated twice. […] The data was analyzed using Flowjo (manufactured by Tree Star Inc.).

[2] = system: human stomach cancer cell line SNU-16; assay: In vivo combined use with Ki23057, SNU-16-transplanted nude mice; set-up: species or system nude mouse; settings: in combination with hFR2-14_H19/L1 20 mg/kg
Description: A human stomach cancer cell line SNU-16 (purchased from ATCC) was adjusted to 5×10^7 cells/mL with a 1:1 mixed solution of PBS and Matrigel (purchased from Nippon Becton Dickinson Company, Ltd.), and 0.1 mL of the cell suspension was subcutaneously transplanted to the axillary region of each nude mouse (CAnN.Cg-Foxnl^nu/CrlCrlj, female, 5 to 6 weeks old, purchased from Charles River Laboratories Japan Inc.). […] Administration of hFR2-14_H19/L1 was carried out 8, 11, 15, and 18 days after transplantation, and administration of Ki23057 was carried out 8, 9, 10, 11, 15, 16, 17, and 18 days after transplantation. The major axis (mm) and minor axis (mm) of the tumor were measured over time using an electronic digital caliper (manufactured by Mitsutoyo Corp.). The tumor volume was calculated according to the following expression: Tumor volume (mm^3)=½×[Major axis of the tumor]×[Minor axis of the tumor]×[Minor axis of the tumor]
The antitumor effect was evaluated on the basis of the percentage of tumor growth inhibition (TGI %) at 21 days after transplantation (3 days after final administration) and 32 days after transplantation (final assay day) according to the following expression: TGI (%)=(1−A/B)×100

SMILES	number of CR individuals among 9 mice at 21 days after transplantation ([1]; administered alone, hFR2-14_H19/L1 20 mg/kg)	TGI at 21 days after transplantation (final assay day) ([1]; hFR2-14_H19/L1 20 mg/kg intraperitoneally, AZD4547 3 mg/kg orally)	number of the antigen FGFR2 on cell surface (SNU-16 cells)	TGI at 21 days after transplantation ([2]; Ki23057 5 mg/kg orally)	TGI at 32 days after transplantation (final assay day) ([2]; Ki23057 5 mg/kg orally)	TGI at 21 days after transplantation ([2]; Ki23057 20 mg/kg orally)	TGI at 32 days after transplantation (final assay day) ([2]; Ki23057 20 mg/kg orally)
COc1cc(CCc2cc(NC(=O)c3ccc(N4C[C@@H](C)N[C@@H](C)C4)cc3)n[nH]2)cc(OC)c1 [AZD4547, N-(5-(3,5-dimethoxyphenethyl)-1H-pyrazol-3-yl)-4-((3S,5R)-3,5-dimethylpiperazin-1-yl)benzamide, reference compound]	0	24%	–	–	–	–	–
COc1cc2c(Oc3ccc(Nc4ccc(C(C)(C)C)cc4)cc3)ccnc2cc1OCCNCCO [Ki23057, 2-((2-((4-(4-((4-(tert-butyl)phenyl)amino)phenoxy)-6-methoxyquinolin-7-yl)oxy)ethyl)amino)ethanol]	–	–	elevated; also recorded: increased	7%	1%	29%	−14%
